# Test results published in publication PMC8162438, “Cancer cell-selective modulation of mitochondrial respiration and metabolism by potent organogold(III) dithiocarbamates” (Chemical Science, 2020).
# Test system: MDA-MB-231
# Test: Whole-cell uptake after pre-treatment with uptake inhibitors (GF-AAS)
# Assay type: cell-based
# Conditions: MDA-MB-231, 5 μM, 24 h; NaN3, chlorpromazine, Me-β-CD, genistein, wortmannin
# Procedure: To understand cell uptake mechanisms, detailed uptake studies using GF-AAS were conducted whereby MDA-MB-231 cells were incubated with gold compound, 2a after cellular pretreatment with one of a number of known inhibitors of cellular uptake. Sodium azide (NaN3), which is known to inhibit mitochondrial oxidative phosphorylation, was used as a general inhibitor of energy (ATP)-dependent (active) uptake; chlorpromazine (CL) was utilized as an inhibitor of clathrin-dependent endocytosis (CDE); β-cyclodextrin (Me-β-CD) and genestein (Gen) were used as inhibitors of clathrin-independent endocytosis (CIE); and, wortmannin (Wort) was employed as a known inhibitor of micropinocytosis. […] Being an […] pathway illustrates that these compounds are not dependent on oxidative phosphorylation for uptake, despite; their ability to modulate OXPHOS. […]
# and treated at a final concentration of 5 µ M and treated for 24 hours as well. The cells were then collected by trypsinization and centrifuged at 2000 rpm for 5 minutes to form a pellet. […]
# text (Figure 5C). Samples 37 °C, NaN 3, methyl-β-cyclodextrin, and chlorpromazine hydrochloride were calculated using calibration curve Fig. S134 and samples wortmannin, genistein, and +4 °C were calculated using calibration curve Fig. S135. […]
smiles,measurement,value
C[N+](C)=C1[S][Au-2]2([S]1)[c]1ccccc1Cc1cccc[n+]12.F[P-](F)(F)(F)(F)F (stereo not shown) [2a],Uptake after pre-treatment with uptake inhibitors,significantly decreased with all inhibitors with the exception of NaN3
